Measurements from US12722014B2, “Method of treating drug resistant hypertension and heart failure with preserved ejection fraction by combined drug treatment with baropacing and beta blockers” (BaroPace, Inc., priority 2020, dated 2026).

Assays:
[1] = Published retrospective and prospective study of BaroPacing by BaroPace's clinical research team; assay type: in vivo, human; settings: current treatment with the beta blocker
Source text: Based on the observation that pacemaker implant in patients with drug resistant hypertension (DRH) and heart failure with preserved ejection fraction (HFpEF) lowers blood pressure and improves clinical outcomes, BaroPace, Inc. is developing technology to treat drug resistant hypertension and (HFpEF) by regulating cardiac pacemakers in real time in response to blood pressure (BaroPacing™). […] The BaroPacing research model offers a now-proven cost efficient means of screening ISA drugs such as pindolol and acebutolol to test this hypothesis. If proven true, besides a new patentable indication, such results could lead to a treatment paradigm shift and clinical revitalization of ISA beta blockers.

[2] = Prospective study of BaroPacing (raising right atrial pacing rate) in 14 subjects with hypertension and dual chamber pacemakers; assay type: in vivo, human; settings: 8 patients taking either Metoprolol or Carvedilol vs 6 subjects not taking any beta blockers (p<0.004 in the latter)
Source text: I have prospectively studied 14 subjects with hypertension and dual chamber pacemakers, 6 not taking any beta blockers, and 8 taking either metoprolol or carvedilol. […] PressurePacing or BaroPacing is defined to include the algorithmically controlled pacing methodologies and programmable pacemakers as disclosed in PCT/US19/59703; PCT/US20/025447; PCT/US21/42622; and US Provisional filing 63/123,951, each and all incorporated herein by reference.

SMILES	beneficial blood pressure lowering effects of BaroPacing [1]	improvement in New York Heart Association Class seen in HFpEF with BaroPacing [1]	significant lowering of systolic blood pressure (>10 mmHg) by BaroPacing [2]
COc1ccccc1OCCNCC(O)COc1cccc2[nH]c3ccccc3c12 (stereo not drawn) [Carvedilol]	substantially blunts	substantially blunts	lost
COCCc1ccc(OCC(O)CNC(C)C)cc1 (stereo not drawn) [Metoprolol, metoprolol]	substantially blunts	substantially blunts	lost
